Values of other authors, collected in patent publication US7459223B2, “Electrochemical methods for generation of a biological proton motive force” (Board of Trustees of Michigan State University, priority 1998, dated 2008).
Where two headings read alike, the source gives them in different places.

Conditions: cited from earlier work

Row | Compound | E0′ (redox potential) (Table 1, redox mediators) | E0′ (redox potential)
1 | NC(=O)c1ccc[n+]([C@@H]2O[C@H](COP(=O)(O)OP(=O)(O)OC[C@H]3O[C@@H](n4cnc5c(N)ncnc54)[C@H](O)[C@@H]3O)[C@@H](O)[C@H]2O)c1 [NAD^+] | −0.32 V | 
2 | Menaquinone | −0.074 V | −0.073 volt
